Here are results for 7 compounds from BindingDB's records for doi:10.1021/jm970397q (Merck Research Laboratories, 1997).

By kon is commonly meant the second-order rate constant of association.

Counter-ions that a name gives are not always drawn.

The target in the assay is Prothrombin (Homo sapiens, UniProt P00734). Kind of assay: Inhibition of Thrombin. Conditions: read-out: kon (M-1-s-1).
With `NC1CCC(CNC(=O)[C@@H]2CCCN2C(=O)CC2c3ccccc3C=Cc3ccccc32)CC1` (stereo partly drawn) [(S)-1-(2-5H-Dibenzo[a,d]cyclohepten-5-yl-acetyl)-pyrrolidine-2-carboxylic acid (4-amino-cyclohexylmethyl)-amide; hydrochloride], the on-rate (kon) was found to be 1.8e+08 M⁻¹ s⁻¹.

In the case of `NC1CCC(CNC(=O)[C@@H]2CCCN2C(=O)CC(C2CCCCC2)C2CCCCC2)CC1` (stereo partly drawn) [(S)-1-(3,3-Dicyclohexyl-propionyl)-pyrrolidine-2-carboxylic acid (4-amino-cyclohexylmethyl)-amide; hydrochloride], the kon stood at 2.3e+08 M⁻¹ s⁻¹.

Regarding `NC1CCC(CNC(=O)[C@@H]2CCCN2C(=O)CC(c2ccccc2)c2ccccc2)CC1` (stereo partly drawn) [(S)-1-(3,3-Diphenyl-propionyl)-pyrrolidine-2-carboxylic acid (4-amino-cyclohexylmethyl)-amide; TFA], the on-rate constant (kon) came out at 2.1e+08 M⁻¹ s⁻¹.

On to `NC1CCC(CNC(=O)[C@@H]2CCCN2C(=O)CC(c2cccnc2)c2ccc3c(c2)OCO3)CC1` (stereo partly drawn) [(S)-1-(3-Benzo[1,3]dioxol-5-yl-3-pyridin-3-yl-propionyl)-pyrrolidine-2-carboxylic acid (4-amino-cyclohexylmethyl)-amide; TFA], for which the on-rate constant (kon) was found to be 2.51e+08 M⁻¹ s⁻¹.

In the case of `NC1CCC(CNC(=O)[C@@H]2CCCN2C(=O)CC(c2ccccc2)c2ccccn2)CC1` (stereo partly drawn) [(S)-1-(3-Phenyl-3-pyridin-2-yl-propionyl)-pyrrolidine-2-carboxylic acid (4-amino-cyclohexylmethyl)-amide; TFA], the kon is 1.8e+08 M⁻¹ s⁻¹.

Consider `NC1CCC(CNC(=O)[C@@H]2CCCN2C(=O)CC(c2ccccc2)c2cccnc2)CC1` (stereo partly drawn) [(S)-1-(3-Phenyl-3-pyridin-3-yl-propionyl)-pyrrolidine-2-carboxylic acid (4-amino-cyclohexylmethyl)-amide; TFA], for which the kon stood at 2.1e+08 M⁻¹ s⁻¹.

Regarding `NC1CCC(CNC(=O)[C@@H]2CCCN2C(=O)CC(c2ccccc2)c2ccncc2)CC1` (stereo partly drawn) [(S)-1-(3-Phenyl-3-pyridin-4-yl-propionyl)-pyrrolidine-2-carboxylic acid (4-amino-cyclohexylmethyl)-amide; TFA], the kon came out at 1.55e+08 M⁻¹ s⁻¹.
